Measurements published in patent US6849728B1, “GLUT10: a glucose transporter in the type 2 diabetes linked region of chromosome 20Q12-13.1” (Wake Forest University Health Sciences, priority 2000, dated 2005).
Positions count from the first letter of the chain named. Entries after “also recorded” stand apart in the source; their conditions may differ. One block for each molecule: values may come before it.

Tests used:
human GLUT10 = biological target: T1, human GLUT10 (Homo sapiens, UniProt O95528); assay: 2-DOG uptake in Xenopus oocytes injected with GLUT10 RNA; assay type: cell-based; conditions: for effect of competitors on [3H]2-DOG uptake: 100-fold excess: 25 mM competitor
T1 construct: A full-length GLUT10 cDNA was cloned into the expression vector pCMV-Tag4a (Stratagene); expressed in transfected cells; host or cells: Xenopus laevis oocytes injected with capped mRNA
T1 sequence (O95528 1-541): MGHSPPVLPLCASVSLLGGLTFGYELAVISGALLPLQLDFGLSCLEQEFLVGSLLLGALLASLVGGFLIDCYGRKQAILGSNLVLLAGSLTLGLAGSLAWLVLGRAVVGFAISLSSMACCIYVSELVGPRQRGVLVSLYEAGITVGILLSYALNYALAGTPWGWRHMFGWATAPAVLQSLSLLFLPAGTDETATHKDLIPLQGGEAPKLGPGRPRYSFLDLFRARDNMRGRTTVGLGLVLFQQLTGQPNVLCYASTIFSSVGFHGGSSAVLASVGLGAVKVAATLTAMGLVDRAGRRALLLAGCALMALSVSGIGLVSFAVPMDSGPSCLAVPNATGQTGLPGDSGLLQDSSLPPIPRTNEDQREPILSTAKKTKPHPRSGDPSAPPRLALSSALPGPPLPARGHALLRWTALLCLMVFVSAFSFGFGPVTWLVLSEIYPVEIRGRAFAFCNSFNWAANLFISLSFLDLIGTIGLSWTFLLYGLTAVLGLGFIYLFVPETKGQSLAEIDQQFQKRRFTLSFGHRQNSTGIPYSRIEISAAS
Excerpt: (§1) Material and Methods. A full-length GLUT10 cDNA was cloned into the expression vector pCMV-Tag4a (Stratagene). A PCR-based strategy employing Pfu polymerase was used for site-directed mutagenesis to generate the GLUT10 single nucleotide polymorpisms. The PCR products were digested with Eco RI, subcloned into pCMV-Tag4a, and the complete insert was sequenced to confirm the identity of the A206T and A287T GLUT10 glucose transporter cDNAs. The pcDNA3.1/GS plasmids expressing the full-length GLUT3 and GLUT4 cDNA were purchased from Invitrogen Corporation. Capped mRNA was generated using the mMESSAGE mMACHINE™ transcription kit (Ambion Inc).
Adult female Xenopus laevis were obtained from Xenopus Express (Homosassa, Fla.) and housed at 17-19° C. on a twelve-hour light/dark cycle. Stage V-VI oocytes were removed from anesthetized frogs and placed in isolation media (108 mM NaCl, 1 mM EDTA, 2 mM KCl, 10 mM HEPES, pH 7.5). The oocyte follicular layer was removed by immersion in 0.5 mg/ml collagenase buffer (83 mM NaCl, 2 mM KCl, 1 mM MgCl2, and 5 mM HEPES, pH 7.5). Isolated oocytes were maintained in modified Barth's saline (MBS; 88 mM NaCl, 1 mM KCl, 10 mM HEPES, 0.82 mM MgSO4, 2.4 mM NaHCO3, 0.91 mM CaCl2, and 0.33 mM Ca(NO3)2, pH 7.5). Visually healthy oocytes were injected with 30 nl of either a mRNA solution (1.0 μg/μl) or sterile water at the interface between the animal and vegetal poles. Individual oocytes were placed in 96-well microtiter plates (Costar Corporation) containing MBS plus 2 mM sodium pyruvate, 0.5 mM theophylline, 10 U/ml penicillin, 10 mg/l streptomycin and 50 mg/] gentamycin (Sigma) at 22° C.
(§2) DOG (final specific activity=0.5 Ci/mmol) (NEN Life Science Products, Inc.; American Radiochemical Company). Competitors, inhibitors, or insulin were added to the incubation as indicated. Uptake was terminated by removal of the radioactive solution and three 500 μl washes with ice-cold MBS containing 0.1 mM phloretin (Sigma). Pools of oocytes were dissolved in 10% SDS, mixed with scintillation fluid, and internalized radioactivity was measured by scintillation spectrometry using a Beckman LS-600 scintillation counter. Data are expressed as the arithmetic mean or median of duplicate or triplicate pools of 4 to 12 oocytes at each data point. Transport kinetics were analyzed by best-fit analysis of data points (Cricket Graph, Computer Associates) and Eadie-Hofstee transformation.

human GLUT4 = biological target: T2, human GLUT4 (Homo sapiens, UniProt P14672); assay: 2-DOG uptake in Xenopus oocytes injected with GLUT4 RNA; assay type: cell-based; conditions: pre-incubation with 100 μM insulin for 30 min, 250 μM [3H]2-DOG
T2 construct: The pcDNA3.1/GS plasmids expressing the full-length GLUT3 and GLUT4 cDNA were purchased from Invitrogen Corporation; host or cells: Xenopus laevis oocytes injected with capped mRNA
T2 sequence (P14672 1-509): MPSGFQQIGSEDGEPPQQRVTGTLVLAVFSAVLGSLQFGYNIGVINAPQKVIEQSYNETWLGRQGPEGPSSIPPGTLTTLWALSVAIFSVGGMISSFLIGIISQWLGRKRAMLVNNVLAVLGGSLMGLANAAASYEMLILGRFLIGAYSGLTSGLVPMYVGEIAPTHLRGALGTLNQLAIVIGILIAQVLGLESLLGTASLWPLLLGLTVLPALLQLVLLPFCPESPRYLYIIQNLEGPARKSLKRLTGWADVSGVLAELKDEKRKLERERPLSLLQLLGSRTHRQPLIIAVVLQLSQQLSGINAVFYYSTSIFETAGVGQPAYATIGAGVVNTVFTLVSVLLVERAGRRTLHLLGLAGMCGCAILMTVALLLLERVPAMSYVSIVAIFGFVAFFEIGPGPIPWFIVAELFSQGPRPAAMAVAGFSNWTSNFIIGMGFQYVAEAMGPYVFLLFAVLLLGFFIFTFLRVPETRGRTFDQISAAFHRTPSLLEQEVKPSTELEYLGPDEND
Excerpt: as §1
(§3) Adult female Xenopus laevis were obtained from Xenopus Express (Homosassa, Fla.) and housed at 17-19° C. on a twelve-hour light/dark cycle. […]
as §2, with “Competitors, inhibitors, or insulin were added to the incubation as indicated. Uptake was terminated by removal of the radioactive solution and three 500 μl washes with ice-cold MBS containing 0.1 mM phloretin (Sigma).” left out

GLUT10 A206T = biological target: T3, GLUT10 A206T (Homo sapiens, UniProt O95528, A206T); assay: 2-DOG uptake in Xenopus oocytes expressing GLUT10 A206T isoform; assay type: cell-based; conditions: pre-incubation with insulin
T3 construct: A full-length GLUT10 cDNA was cloned into the expression vector pCMV-Tag4a (Stratagene); expressed in transfected cells; host or cells: Xenopus laevis oocytes injected with capped mRNA
T3 sequence (O95528 1-541 A206T): T1 sequence (O95528 1-541) with A206T
Excerpt: as §1, §3
as §2, with “Competitors, inhibitors, or insulin were added to the incubation as indicated. Uptake was terminated by removal of the radioactive solution and three 500 μl washes with ice-cold MBS containing 0.1 mM phloretin (Sigma).” left out, “transformation. […]” for “transformation.”

GLUT10 A28T = biological target: T4, GLUT10 A28T (Homo sapiens, UniProt O95528, A287T); assay: 2-DOG uptake in Xenopus oocytes expressing GLUT10 A28T isoform; assay type: cell-based; conditions: pre-incubation with insulin
T4 construct: A full-length GLUT10 cDNA was cloned into the expression vector pCMV-Tag4a (Stratagene); expressed in transfected cells; host or cells: Xenopus laevis oocytes injected with capped mRNA
T4 sequence (O95528 1-541 A287T): T1 sequence (O95528 1-541) with A287T
Excerpt: as §1, §3
as §2, with “Competitors, inhibitors, or insulin were added to the incubation as indicated. Uptake was terminated by removal of the radioactive solution and three 500 μl washes with ice-cold MBS containing 0.1 mM phloretin (Sigma).” left out, “transformation. […]” for “transformation.”

[1] = substrate: O=CC[C@@H](O)[C@H](O)[C@H](O)CO; assay: cells, lysate or membranes; conditions: Eadie-Hofstee analysis, pH 7.5
[2] = 250 μM [3H]2-DOG, 30 min at 22° C.

effect of competitors on [3H]2-DOG uptake (human GLUT10; [2]): effectively competed
Molecule: O=C[C@H](O)[C@@H](O)[C@H](O)[C@H](O)CO [D-glucose]

effect of competitors on [3H]2-DOG uptake (human GLUT10; [2]): did not inhibit
Molecule: O=C(CO)[C@@H](O)[C@H](O)[C@H](O)CO [fructose]

insulin stimulation of glucose transport (human GLUT10; pre-incubation with insulin, oocytes injected with GLUT10 mRNA): approximately 2 fold
insulin stimulation of 2-DOG transport (human GLUT10; wild type GLUT10, pre-incubation with 100 μM insulin for 30 min, 250 μM [3H]2-DOG): stimulated
insulin stimulation of 2-DOG transport (human GLUT4): stimulated
insulin stimulation of 2-DOG uptake activity (GLUT10 A206T): not stimulated
insulin stimulation of 2-DOG uptake activity (GLUT10 A28T): not stimulated
Molecule: insulin

Second part, the molecule before the results:

Molecule: O=CC[C@@H](O)[C@H](O)[C@H](O)CO [2-DOG, 2-deoxy-D-glucose]
2-DOG uptake over the water-injected controls (human GLUT10; 25 μM 2-DOG, 30 min at 22° C., 3 days after injection of 30 ng GLUT10 RNA): 5 fold
effect of competitors on [3H]2-DOG uptake (human GLUT10; [2]): effectively competed
Vmax of 2-DOG uptake (human GLUT10; GLUT10 RNA-injected oocytes, 30 min at 22° C., Eadie-Hofstee analysis): 0.85 pmol oocyte^−1 30 min^−1
Km (human GLUT10; read-out: apparent Km for 2-DOG transport, GLUT10 mRNA-injected oocytes, 30 min, Eadie-Hofstee analysis): ~300 µM

Molecule: O=C[C@H](O)[C@@H](O)[C@@H](O)[C@H](O)CO [D-galactose]
effect of competitors on [3H]2-DOG uptake (human GLUT10; [2]): inhibited 2-DOG uptake but less effectively; also recorded: competed

Molecule: O=C(CCc1ccc(O)cc1)c1c(O)cc(O)cc1O [phloretin]
effect of phloretin on 2-DOG uptake (human GLUT10; 100 μM phloretin, 25 μM [3H]2-DOG, 30 min at 22° C.): inhibited

B1: human GLUT10 (Homo sapiens) (protein)
chain: T1 sequence (O95528 1-541)
Km ([1]; other: GLUT10 RNA (30 ng) injected oocytes, 30 min at 22° C., corrected for water-injected background): 280 µM
Km ([1]; other: GLUT10 mRNA-injected oocytes, 30 min, 22.0 °C): 300 µM
